Assay results published in publication PMC9916778 (International Journal of Molecular Sciences, 2023).
Read-outs that look alike come from different tables or passages of the source.

What was measured:
A2780 cells [1] = conditions: 23 nM concentration ref 25; cited from earlier work
Caco-2 cells = conditions: read-out: IC50, antiproliferative effect, Caco-2 cells; cited from earlier work
[2] = tested on: A2780 ovarian carcinoma cells; experiment: In vitro cytotoxicity (MTT assay), A2780; type: cell-based, human
Procedure: (§1) The reference normal cell line of human fetal fibroblasts (MRC-5) was obtained from the same commercial source and maintained according to the producer’s instructions. The half-maximal inhibitory concentrations (IC50) were calculated from dose–response curves by means of the GraphPad Prism 6 software (GraphPad Software, San Diego, CA, USA).

[3] = tested on: A2780R Cisplatin-resistant ovarian carcinoma cells; experiment: In vitro cytotoxicity (MTT assay), A2780R; type: cell-based, human; conditions: ± standard deviation, triplicate
Procedure: as §1, with “The testing was performed on the ovarian carcinoma (A2780), Cisplatin-resistant ovarian carcinoma (A2780R), prostate adenocarcinoma (PC-3), prostate carcinoma (22Rv1), and leukemia monocytic (THP-1) and intestinal colon adenocarcinoma (LS180) human cell lines that were obtained from the ATCC collection of cell lines and cultivated according to the producer’s instructions. The reference” for “The reference”

[4] = tested on: PC-3 prostate adenocarcinoma cells; experiment: In vitro cytotoxicity (MTT assay), PC-3; type: cell-based, human; conditions: ± standard deviation, triplicate
Procedure: as §1, with “The testing was performed on the ovarian carcinoma (A2780), Cisplatin-resistant ovarian carcinoma (A2780R), prostate adenocarcinoma (PC-3), prostate carcinoma (22Rv1), and leukemia monocytic (THP-1) and intestinal colon adenocarcinoma (LS180) human cell lines that were obtained from the ATCC collection of cell lines and cultivated according to the producer’s instructions. The reference” for “The reference”

[5] = tested on: 22Rv1 prostate carcinoma cells; experiment: In vitro cytotoxicity (MTT assay), 22Rv1; type: cell-based, human; conditions: ± standard deviation, triplicate
Procedure: as §1, with “The testing was performed on the ovarian carcinoma (A2780), Cisplatin-resistant ovarian carcinoma (A2780R), prostate adenocarcinoma (PC-3), prostate carcinoma (22Rv1), and leukemia monocytic (THP-1) and intestinal colon adenocarcinoma (LS180) human cell lines that were obtained from the ATCC collection of cell lines and cultivated according to the producer’s instructions. The reference” for “The reference”

[6] = tested on: THP-1 leukemia monocytic cells; experiment: In vitro cytotoxicity (MTT assay), THP-1; type: cell-based, human; conditions: ± standard deviation, triplicate
Procedure: as §1, with “The testing was performed on the ovarian carcinoma (A2780), Cisplatin-resistant ovarian carcinoma (A2780R), prostate adenocarcinoma (PC-3), prostate carcinoma (22Rv1), and leukemia monocytic (THP-1) and intestinal colon adenocarcinoma (LS180) human cell lines that were obtained from the ATCC collection of cell lines and cultivated according to the producer’s instructions. The reference” for “The reference”

[7] = tested on: LS180 intestinal colon adenocarcinoma cells; experiment: In vitro cytotoxicity (MTT assay), LS180; type: cell-based, human; conditions: ± standard deviation, triplicate
Procedure: as §1, with “The testing was performed on the ovarian carcinoma (A2780), Cisplatin-resistant ovarian carcinoma (A2780R), prostate adenocarcinoma (PC-3), prostate carcinoma (22Rv1), and leukemia monocytic (THP-1) and intestinal colon adenocarcinoma (LS180) human cell lines that were obtained from the ATCC collection of cell lines and cultivated according to the producer’s instructions. The reference” for “The reference”

[8] = tested on: MRC5 human fetal fibroblasts; experiment: In vitro cytotoxicity (MTT assay), normal MRC-5 fibroblasts; type: cell-based; conditions: ± standard deviation, triplicate, read-out: IC50, MRC5 (healthy cells)
Procedure: as §1, with “The testing was performed on the ovarian carcinoma (A2780), Cisplatin-resistant ovarian carcinoma (A2780R), prostate adenocarcinoma (PC-3), prostate carcinoma (22Rv1), and leukemia monocytic (THP-1) and intestinal colon adenocarcinoma (LS180) human cell lines that were obtained from the ATCC collection of cell lines and cultivated according to the producer’s instructions. The reference” for “The reference”

[9] = tested on: human cancer cell lines (A2780, A2780R, PC-3, 22Rv1, and THP-1); experiment: In vitro cytotoxicity, summary statements over the panel of cell lines; type: cell-based
Procedure: as §1, with “The testing was performed on the ovarian carcinoma (A2780), Cisplatin-resistant ovarian carcinoma (A2780R), prostate adenocarcinoma (PC-3), prostate carcinoma (22Rv1), and leukemia monocytic (THP-1) and intestinal colon adenocarcinoma (LS180) human cell lines that were obtained from the ATCC collection of cell lines and cultivated according to the producer’s instructions. The reference” for “The reference”

A2780 cells [10] = experiment: Cell cycle analysis (flow cytometry); type: cell-based, human; conditions: A2780, half-cytotoxic concentration, 24 h
Procedure: After 24 h, the cells were treated with a 4 µM solution of complex (1) and cultivated for the next 24 h. Then, the cells were washed once with PBS (0.1 M, pH 7.4), and cell cycle analysis was performed using a BD Cycletest^TM Plus DNA kit (Becton Dickinson, Franklin Lakes, NJ, USA) according to the manufacturer’s protocol. The data were acquired using a BD FACSVerse flow cytometer (Becton Dickinson, USA) in three independent experiments, each performed in duplicate, while at least 5 × 10^3 events were recorded for each sample.

A2780 cells [11] = experiment: Induction of apoptosis, Annexin V-FITC/PI staining; type: cell-based, human; conditions: A2780, half-cytotoxic concentration, 24 h
Procedure: (§2) The induction of cell death by complex (1) was studied by two methods in the A2780 cell line. Firstly, the induction of apoptosis was tested using an Annexin V-FITC/PI commercial kit (V13242, Thermo Fisher Scientific, USA). Second, caspase 3/7 activation was monitored using the CellEvent™ Caspase-3/7 Green Flow Cytometry Assay Kit (C10427, Thermo Fisher Scientific, USA). Both assays were performed according to the manufacturers’ protocols with one modification in the caspase induction assay: the use of CellEvent^TM Caspase-3/7 Green Detection Reagent was only for the detection of caspase 3/7 activation. The general procedure was as follows: 5 × 10^4 cells per well were seeded in a 24-well cell culture plate, and after 24 h, the cells were treated with 4 µM solution of complex (1) and cultivated for next 24 h. […] The trypsin was blocked by adding the cell culture medium to a final volume of 500 µL, and the resulting cell suspensions were divided into two separate 250 µL aliquots. The first set of aliquots was used to evaluate the Annexin V-FITC/PI assay, whilst the second one was used for the caspase 3/7 activation assay. Both assays were performed using a BD FACSVerse flow cytometer (Becton Dickinson, USA) in three independent experiments, each performed in duplicate.

caspases 3/7 = experiment: Caspase 3/7 activation (flow cytometry); type: cell-based, human; conditions: A2780, half-cytotoxic concentration, 24 h
Procedure: as §2

A2780 cells [12] = experiment: Induction of autophagy (CYTO-ID kit); type: cell-based, human; conditions: A2780, half-cytotoxic concentration, 24 h
Procedure: The induction of autophagy by complex (1) was studied using a CYTO-ID® Autophagy Detection Kit 2.0 (ENZO, New York, NY, USA) according to the manufacturer’s protocol. Briefly, the A2780 cells were seeded in a 24-well cell culture plate at 5 × 10^4 cells per well and cultivated for 24 h. The next day, the cells were treated with complex (1) at 4 µM. […] Then, the cells were stained with CYTO-ID® Green stain solution and incubated for 30 min in the dark. After the final wash with PBS, the cell suspensions were analyzed using the BD FACSVerse flow cytometer (Becton Dickinson, USA) in three separate experiments, while at least 10^4 events were recorded for each sample prepared in duplicates. The cells incubated with the mixture of chloroquine (10 µM) and rapamycin (0.5 µM) for 18 h were used as a positive control.

A2780 cells [13] = experiment: Mitochondrial membrane potential analysis (MITO-ID); type: cell-based, human; conditions: A2780, half-cytotoxic concentration, 24 h
Procedure: The A2780 cells were seeded in 24-well cell culture plates at 5 × 10^4 cells/well and cultivated for 24 h. The next day, the complex (1) was added to a final concentration of 4 µM, and the cells were incubated for another 24 h. […] The cells were then isolated by centrifugation and resuspended in a staining solution prepared according to the manufacturer’s protocol from a MITO-ID® Membrane Potential Detection kit (Enzo Life Sciences, USA). Finally, the cells were analyzed using a BD FACSVerse flow cytometer (Becton Dickinson, USA). The control was carried out by treatment with 2 µM carbonyl cyanide 3-chlorophenylhydrazone (CCCP). Three independent experiments were conducted, each in duplicate.

NF-κB = NF-κB activity in LPS-challenged cells (SEAP reporter); type: cell-based, human; conditions: 100 nM, 1 h pre-treatment, LPS 24 h, THP1-Blue NF-κB monocytes
Procedure: The effect of the tested compounds to influence the function of transcription factor NF-κB was determined on lipopolysaccharide (LPS)-challenged THP1-Blue™ NF-κB cells as we described previously. […] After 24 h incubation, the activity of NF-κB was determined as the amount of secreted embryonic alkaline phosphatase using Quanti-Blue™ medium (Invivogen).

PPARγ = experiment: Immunocytochemical analysis of PPARγ expression and localisation; type: cell-based, human; conditions: 100 nM, 1 h pre-treatment, LPS-stimulated THP1-Blue NF-κB macrophages
Procedure: THP1-Blue™ NF-κB cells were seeded onto a µ-Slide 8 Well (Ibidi; Gräfelfing, Germany) and differentiated into macrophages by […] (PMA) at the final concentration of 50 ng/mL, as was described previously.
Differentiated macrophages were washed by PBS and covered by fresh serum-free medium for 2 h. […] One hour later, the cells were challenged by LPS for 24 h. Then, the cells were washed by PBS and fixed by 4% paraformaldehyde dissolved in PBS for 10 min. Cell permeabilization and blocking of free binding sites were performed by 0.1% (v/v) Triton X100 and 5% (w/v) bovine serum albumin (BSA) dissolved in PBS for 1 h at room temperature. After that, cells were washed by PBS with 0.1% (v/v) Tween 20 and covered by fresh PBS with 5% BSA and 0.1% Tween 20 containing Alexa Fluor® 546-labelled anti-PPARγ antibody diluted 1:100 (catalogue number sc-7273; Santa Cruz Biotechnology; Dallas, TX, USA) for a further 24 h. Then, cells were washed by PBS with 0.1% Tween 20 and incubated with Hoechst stain diluted 1:2000 for 10 min. The remaining stain was washed out by PBS and covered by fresh PBS for further microscope analysis. The confocal microscope Leica TCS SP8 MP (Leica Microsystems, Mannheim, Germany) was used for obtaining the images for the immunocytochemical analysis of PPARγ expression and localization.

## CCN(CC)C(=S)[S][Au][PH](c1ccccc1-c1ccccc1)(C(C)(C)C)C(C)(C)C [diethyldithiocarbamato-[(1,1′-biphenyl-2-yl)di-tert-butylphosphine] gold(I) complex]
A2780 cells [1]
  Cells in G2/M arrest, A2780: around 30%

## [Au(tpy)Cl(2-TU)]
Caco-2 cells
  IC50: 510 ± 280 nM

## c1ccc([PH]([Au][n]2cnc3c(NCc4ccco4)ncnc32)(c2ccccc2)c2ccccc2)cc1 [[Au(kin)(PPh3)] (1), [Au(kin)(PPh3)]]
[2]; 24 h incubation, read-out: Time-dependent in vitro cytotoxicity (IC50), A2780, 24 h
  IC50: 2900 ± 700 nM
[2]; 72 h incubation, read-out: Time-dependent in vitro cytotoxicity (IC50), A2780, 72 h
  IC50: 3000 ± 600 nM
[2]; MTT, 24 h incubation, ± standard deviation, triplicate, read-out: IC50, A2780
  IC50: 2900 ± 700 nM
[2]; read-out: IC50, A2780, after 48 h and 72 h incubation, 48 h and 72 h incubation, insignificant changes
  IC50: ~3000 nM
[2]; read-out: Time-dependent in vitro cytotoxicity (IC50), A2780, 48 h, 48 h incubation
  IC50: 3000 ± 300 nM
[3]
  IC50: 5000 ± 1500 nM
[4]
  IC50: 4800 ± 1300 nM
[5]
  IC50: 3700 ± 500 nM
[6]
  IC50: 1100 ± 200 nM
[7]
  IC50: > 10000 nM
[8]
  IC50: > 10000 nM
[9]; A2780, A2780R, PC-3, 22Rv1, and THP-1, read-out: IC50 against human cancer cell lines (summary)
  IC50: 1000 to 5000 nM
[9]; IC50 for normal cell line/IC50 for cancerous cell line
  selectivity index (SI): higher than 2
A2780 cells [10]
  Population of cells in G2/M phase: 24.8 ± 1.0%
  Population of cells in S phase: 22.6 ± 1.6%
A2780 cells [10]; vs untreated control
  Number of cells in the G0/G1 phase: significant decrease in the number of cells in the G0/G1 phase
A2780 cells [11]
  Cells in early stage apoptosis (Annexin V+/PI-): around 10%
  Cells in late stage apoptosis (Annexin V+/PI+): around 30%
Caspases 3/7
  Cells with active executioner caspases 3/7: around 40%
A2780 cells [12]
  Induction of autophagy: not shown to cause metabolic stress strong enough to induce the autophagy
A2780 cells [13]
  Damage to mitochondrial membranes: clearly the least effective
NF-κB
  Effect on LPS-stimulated NF-κB activity: did not show any effect on the activity of NF-κB
PPARγ
  Effect on the amount of PPARγ: slightly increase the amount of PPARγ
